Results published in PMC5958115, “A novel small molecule chaperone of rod opsin and its potential therapy for retinal degeneration” (Nature Communications, 2018).
“Also recorded” adds a separate entry of the source. Read-outs that look alike come from different tables or passages of the source.

How the values were obtained:
Type in all cases: cell-based
mouse P23H-opsin mutant = mouse P23H-opsin mutant (Mus musculus, UniProt P15409, P23H); experiment: β-Gal fragment complementation assay: rescue of P23H opsin transport from ER to plasma membrane, U2OS(PLC-EA/P23H-PK) cells
From the text: U2OS(PLC-EA/P23H-PK) cells. A U2OS stable cell line was generated by DiscoveRx, Inc. (Fremont, CA, USA) for the β-Gal fragment complementation assay used in the small-molecule HTS for rescue of P23H-opsin transport. U2OS cells that continually express P23H-PK and PLC-EA fusion proteins were generated. Briefly, this small subunit of β-Gal (PK fragment) was fused to the C-terminal of the mouse P23H-opsin mutant, while the large EA fragment, a subunit of β-Gal, was fused with PLC, a plasma membrane-anchored peptide. Both constructs were subcloned by DicoveRx, Inc. and transferred into U2OS cells by viral infections. Positive clones were selected under treatment with hygromycin and geneticin.
Briefly, U2OS(PLC-EA /P23H-PK) cells were suspended in assay medium at 3 × 10^5 cells mL^−1. The cell suspension was dispensed into 384-well plates (Greiner Bio-one, Monroe, NC, USA) at 20 µL per well, with a Multidrop dispenser (Thermo Scientific, Waltham, MA, USA). Plates with cells then were centrifuged at 200×g for 15 s before incubation at 37 °C with 5% CO2. Plates were removed 24 h later for treatment with tested compounds. A total of 248 plates containing 79,080 compounds from three small-molecule libraries were paired with an equal number of assay plates with cultured cells. Owing to a limited capacity, these plates were assayed in seven batches. An average of 56.3 nL of 10 mM compound in DMSO was dispensed into each well from column 3 to 22 of paired assay plates using a 50 nL 384-pintool system, such that the final concentration of each compound was 22.52 µM on average. […] Each assay plate was shaken for 5 s before further incubation at 37 °C with 5% CO2. After 24 h, assay plates were removed, and each well was incubated with 25 µL of 1× Gal-Screen assay buffer (1:24 substrate-buffer ratio). Assay plates were incubated in the dark for 60–90 min, and luminescence was read from each assay plate with an Envision microplate reader (PerkinElmer) during a 0.1 s per well integration time. The mean and s.d. of readouts in column 2 of each plate were calculated as Mean0% and SD0%, whereas the average and s.d. of readouts in column 23 were calculated as Mean100% and SD100%. Eq. 1: Activity scores (%) = (RLUcp − Mean0%)/(Mean100% − Mean0%) × 100%, where RLUcp is the relative luminescence unit derived for cells treated with a compound. Eq. 2: Z′-factor = 1–3 × (SD0% + SD100%)/(Mean100% − Mean0%)[32]; Eq. 3: signal-to-background (S/B) ratio = Mean100%/Mean0%. Activities of all tested compounds were registered with their compound ID by GeneData Screener (Genedata, Basel, Switzerland) and Pipeline Pilot software (Accelrys, San Diego, CA, USA). Hits, cherry-picked from a separate stock dose-dependent activity test, were selected with an activity score cutoff at 20%. Activity of each hit was tested again with the β-Gal fragment complementation assay in a 10-dose series with each dose tested in triplicate. The 10 doses tested were 80, 40, 20, 10, 5, 2.5, 1.25, 0.625, 0.313, and 0.156 µM. Dose-dependent curves of each hit compound were fitted with GeneData and Origin software.
Detailed synthetic steps are described in Supplementary Note and Supplementary Fig. 9. […] YC-002-YC-021 were purchased from commercial vendors including Enamine LLC (Monmouth Jct., NJ, USA), Matrix Scientific (Columbia, SC, USA) and Tokyo Chemical Industry Co., Ltd. (Portland, OR, USA). […] Activities of YC compounds were tested with the β-Gal fragment complementation assay, as described in a prior section. All YC compounds were tested at 10 doses, each in triplicate: 80, 40, 20, 10, 5, 2.5, 1.25, 0.625, 0.313, and 0.156 µM.

P23H opsin = target: T1, P23H opsin (Mus musculus, UniProt P15409, P23H); experiment: Immunoblot of P23H opsin glycosylation in NIH3T3 cell lysates; design: key to Improved glycosylation: n = no; y = yes; details: P23H opsin
T1 construct: expressed in transfected cells
Experimental: NIH3T3-(P23H opsin/GFP) or NIH3T3-(WT-opsin/GFP) cells were seeded in a 48-well plate (Corning Costar) at 3.2 × 10^5 cells per well and incubated at 37 °C with 5% CO2 for 2 h. One hundred-µL of assay medium containing a compound at 5× its final concentration was added to each well. The plate was gently shaken for 5 s before further incubation at 37 °C with 5% CO2 for 24 h. The assay medium then was aspirated, and cells were lysed with 100 µL per well PBS containing 0.1% Triton X-100 and complete protease inhibitor cocktail (Roche, Basel, Switzerland) followed by sonication for 3 s. Protein concentrations were determined with the Bradford assay. For PNGaseF catalyzed deglycosylation, 3 µL of PNGaseF (1500 U, NEB) was added to the cell lysate and the mixture was incubated at room temperature for 1 h before immunoblotting. For NIH3T3-(P23H opsin/GFP) cells, 15 µg of total protein were loaded per well onto an SDS-polyacrylamide gel; whereas for NIH3T3-(WT-opsin/GFP) cells, 5 µg of total protein was loaded per well. Opsin protein was immunostained with 0.2 μg mL^−1 horseradish peroxidase-conjugated 1D4 anti-rhodopsin antibody. Band intensities were measured with ImageJ software (http://imagej.nih.gov/ij/; National the Institutes of Health, Bethesda, MD, USA) and normalized to a glyceraldehyde 3-phosphate dehydrogenase (GAPDH) loading control. Full scans of immunoblotted membranes are shown in Supplementary Fig. 8.

mouse P23H opsin = target: T2, mouse P23H opsin (Mus musculus, UniProt P15409, P23H); experiment: High-content imaging analysis of P23H opsin immunostaining in NIH3T3-(P23H opsin/GFP) cells; details: ratio of P23H rod opsin fluorescence on plasma membrane to whole cell; for EC50: read-out: Immunostaining HCS MEM-Total ratio EC50
T2 construct: expressed in transfected cells
Experimental: To characterize the effect of active compounds on the localization of P23H-mutant opsin in mammalian cells, an image-based assay was used with cells immunostained for WT or P23H-mutant opsin protein[18]. Briefly, NIH3T3-(P23H opsin/GFP) or NIH3T3-(WT-opsin/GFP) cells were seeded at 5000 cells per well in a 384-well cell-carrier plate (PerkinElmer) and incubated at 37 °C with 5% CO2 for 2 h. Cells were treated with compounds as described for the β-Gal fragment complementation assay and incubated in assay medium for 24 h. The assay medium then was aspirated, and cells were fixed with 4% paraformaldehyde at 20 µL per well for 20 min at RT. Cells were immunostained in one of two ways: cell membranes were either permeabilized with 0.1% Triton X-100 for 15 min or left intact and then were incubated with 10% goat serum (Life Technologies). To detect opsin on the cell plasma membrane only, intact cells were immunostained with 20 µL per well of 20 µg mL^−1 B6-30 anti-rhodopsin antibody that recognizes the N-terminal epitope on the extracellular side of rhodopsin. To detect total opsin, cells were permeabilized with Triton X-100 and immunostained with 50 µg mL^−1 1D4 anti-rhodopsin antibody specific for the C-terminal epitope on the intracellular side of rhodopsin. Opsin immunostaining was visualized by incubating cells with 5 µg mL^−1 Cy3-conjugated goat anti-mouse IgG antibody. Three washes with phosphate-buffered saline (PBS: 10 mM Na2HPO4, 1.8 mM KH2PO4, pH 7.4, 137 mM NaCl, and 2.7 mM KCl) were performed between each step of incubation with antibody. In the last wash with PBS, DAPI was added to each well at 300 nM. Fluorescence images were obtained with the Operetta High Content Imaging System (PerkinElmer) using a ×20 long objective. Five fields were taken of each well for cell images using three channels for fluorescence: GFP (100 ms), Cy3 (300 ms), and DAPI (50 ms). Images were analyzed with Acapella software from the Columbus data storage and analysis system (PerkinElmer)[18]. For cells immunostained with opsin on the non-permeabilized cell membrane only, an average of total fluorescence intensity of Cy3 per cell was used to quantify opsin in each well of the 384-well plate. For cells immunostained with opsin in permeabilized whole cells, an average ratio of Cy3 intensity on the cell plasma membrane (PM) to that of the entire cell (opsin ratio PM-to-total) was calculated for each well of a 384-well plate to quantify opsin transport to the plasma membrane. The plasma membrane was defined within ± 5% of the cell border.

[1] = modifications linked to C3 of the furan-2(5H)-one ring; 10 doses 0.156-80 µM; read-out: Potency EC50
[2] = 24 h; 5 µM 9-cis-retinal = 100%; experimental maximum
[3] = 24 h; 5 µM 9-cis-retinal = 100%; from curve fitting
[4] = 24 h preincubation; activity standardized to 5 µM 9-cis-retinal as 100%; Hill fit; read-out: β-Gal fragment complementation assay Activity score (%) EC50

SMILES	activity in rescuing P23H-opsin transport (in words) (mouse P23H-opsin mutant)	Emax (mouse P23H-opsin mutant; U2OS; read-out: Efficacy (%)) [%]	EC50 (mouse P23H-opsin mutant; [1]) [µM]	Improved glycosylation (P23H opsin)	β-Gal fragment complementation assay Activity score (%) Max (Exp) (mouse P23H-opsin mutant; [2]) [%]	β-Gal fragment complementation assay Activity score (%) Max (fit) / Efficacy (mouse P23H-opsin mutant; [3]) [%]	EC50 (mouse P23H-opsin mutant; [4]) [µM]	Immunostaining HCS MEM-Total ratio Max (fit) (mouse P23H opsin)	EC50 (mouse P23H opsin) [µM]	also measured
O=C1OCC(c2ccco2)=C1c1cccs1 [YC-049]	some activity that remained									EC50 (mouse P23H-opsin mutant): 91.9 µM; Emax (mouse P23H-opsin mutant; U2OS, read-out: Efficacy (%)): 112%
Cc1c(F)cccc1C1=C(c2ccc(Cl)s2)COC1=O [YC-054]	improved potency, efficacy, or solubility	227	3.53							
O=C(NCCCn1cccc1)c1cc(-c2ccccc2)on1 [Compound F5937-0207]				n	32.8	37.3	8.38	0.021	1.33	
O=C1OCC(c2ccc(Cl)s2)=C1c1ccco1 [YC-028]	failed to retain activity									
O=C1OCC(c2ccc(Cl)s2)=C1c1ccccc1 [YC-047]	activity was preserved or improved	188	9.87							
O=C1NCC(c2ccc(Cl)s2)=C1c1cccs1 [YC-060]		7.1								EC50 (mouse P23H-opsin mutant; modifications of the furan-2(5H)-one ring; read-out: Potency): 24.6 µM
COc1ccc(C2=C(c3ccc(Cl)s3)COC2=O)cc1 [YC-052]		10	7.13							
Cc1sc(C)c(C2C(=O)OC(=O)C2c2c(C)sc(C)c2C)c1C (stereo not shown) [YC-018]										EC50 (mouse P23H-opsin mutant; more than one site modified; read-out: Potency): 138 µM
O=C1OCC(c2ccc(Cl)s2)=C1c1ccc(Cl)cc1Cl [YC-055]		11	5.33							
O=C(NCCCOc1cccc2cccnc12)c1cc(-c2ccccc2)on1 [Compound F5875-0200]				n	31.8	51.6	25	0.041	6.2	
O=C(Cn1c2c(c(=O)n(C3CCCCC3)c1=O)CCC2)Nc1cccc(F)c1 [Compound F5111-0031]				y	60.4	165	54.3	0.025	6.76	
O=C1OCC(c2ccc(Cl)s2)=C1c1ccsc1 [YC-051]	activity was preserved or improved	169	10.9							
O=C(NCC#CCN1CCCC1)c1cc(-c2ccccc2)on1 [Compound F6244-1415]				n	24.8	25.2	8.61	0.063	4.2	
O=C1OCC(c2ccc(Cl)s2)=C1c1ccccn1 [YC-043]	activity was preserved or improved; also recorded: improved potency, efficacy, or solubility		19							Efficacy (%) (mouse P23H-opsin mutant; modifications at C3; normalized to 5 µM 9-cis-retinal): 214%
COc1cccc(C2=C(c3ccc(Cl)s3)COC2=O)c1Cl [YC-056]		104	9.39							
O=C1OCC(c2ccc(Cl)s2)=C1c1ccc(F)cc1 [YC-053]	little efficacy	32.9	24.1							
O=C(NCCn1ncc2c(NCc3ccco3)ncnc21)c1cc(-c2ccccc2)on1 [Compound F2902-1134]				n	23.1	31.5	21.6	0.031	4.15	
O=C(C1CC1)N(CCn1cccn1)c1nc2c(Cl)cccc2s1 [Compound F5581-0240]				y	244	230	5.93	0.010	0.64	
O=C1OCC(c2ccc(Cl)s2)=C1c1cccc(F)c1 [YC-050]	lower efficacies	131	7.36							
O=C1OCC(c2ccc(Cl)s2)=C1c1ccccc1F [YC-068]	relatively higher efficacies; also recorded: improved potency, efficacy, or solubility	261	5.66							
